These results are taken from ChEMBL document CHEMBL4014321, “Discovery of Pyrazolo[1,5-a]pyrimidine B-Cell Lymphoma 6 (BCL6) Binders and Optimization to High Affinity Macrocyclic Inhibitors” (J Med Chem, 2017).

In brackets after ≈: the same amount, converted by molar mass.

One data set relates to SU-DHL-2. Kind of data set: Antiproliferative activity against BCL6 dependent human SU-DHL-2 cells after 3 days by CellTiter-Glo assay. The class given is functional. Conditions: SU-DHL-2, 72 h. For orientation: ATP-based viability assays read luminescence as a measure of living cells.
The nature of data set [1]: Apparent permeability in human Caco2 cells. Conditions: Caco-2. It counts as ADME, cell-based. (Caco-2 monolayers are a common model of the intestinal barrier.)
For another data set, the system named is OCI-Ly3. Kind of data set: Antiproliferative activity against BCL6 dependent human OCI-LY3 cells after 3 days by CellTiter-Glo assay. It counts as functional. Conditions: OCI-Ly3, 72 h.
The next data set deals with OCI-LY19. The data set can be described thus: Antiproliferative activity against BCL6 independent human OCI-LY19 cells after 3 days by CellTiter-Glo assay. Conditions: OCI-LY19, 72 h. The class given is functional.
In the next data set the test system is TMD8. The data set can be described thus: Antiproliferative activity against BCL6 dependent human TMD8 cells after 3 days by CellTiter-Glo assay. The class given is functional. Conditions: TMD8, 72 h.
A further data set has as its system OCI-Ly1. Kind of data set: Antiproliferative activity against BCL6 dependent human OCI-LY1 cells after 3 days by CellTiter-Glo assay. It counts as functional. Conditions: OCI-Ly1, 72 h.
Another data set relates to SUD4. The data set can be described thus: Antiproliferative activity against BCL6 dependent human SUDHL4 cells after 3 days by CellTiter-Glo assay. It counts as functional. Conditions: SU-DHL-4, 72 h.
A short description of data set [2]: Aqueous solubility of the compound at pH 7.4 after 24 hrs by LC-UV method. It counts as physicochemical.
Another data set concerns U2932. The data set can be described thus: Antiproliferative activity against BCL6 dependent human U2932 cells after 3 days by CellTiter-Glo assay. It counts as functional. Conditions: U2932, 72 h.
Data set [3] in a line: Inhibition of human CK2 protein.
A further data set relates to AMO1. The data set can be described thus: Antiproliferative activity against BCL6 dependent human AMO1 cells after 3 days by CellTiter-Glo assay. The class given is functional. Conditions: AMO1, 72 h.
The test system of another data set is KARPAS-422. Kind of data set: Antiproliferative activity against BCL6 […] human KARPAS422 cells after 3 days by CellTiter-Glo assay. The class given is functional. Conditions: KARPAS-422, 72 h.
Another data set concerns OCI-Ly10. The data set can be described thus: Antiproliferative activity against BCL6 dependent human OCI-LY10 cells after 3 days by CellTiter-Glo assay. It counts as functional. Conditions: OCI-Ly10, 72 h.
Data set [4] is filed under the species Homo sapiens. The data set can be described thus: Inhibition of human CK2 protein at 1 uM relative to control.
The target in data set [5] is T1, B-cell lymphoma 6 protein (Homo sapiens, UniProt P41182, C67R/C84N/C8Q). The data set can be described thus: Binding affinity to N-terminal His6-tagged human BCL6 BTB domain C8Q/C67R/C84N mutant expressed in Escherichia coli BL21 (DE3) by surface plasmon resonance spectrometry.
Data set [6] is filed under the species Homo sapiens. Kind of data set: Selectivity ratio of IC50 for human CK2 protein to IC50 for N-terminal His6-tagged human BCL6 BTB domain C8Q/C67R/C84N mutant.
In data set [7] the target is T1, B-cell lymphoma 6 protein. Kind of data set: Inhibition of SMRT2 H1426W mutant peptide binding to N-terminal His6-tagged human BCL6 BTB domain C8Q/C67R/C84N mutant expressed in Escherichia coli BL21 (DE3) preincubated for 30 mins followed by SMRT2 H1426W mutant peptide addition measured after 60 mins by time-resolved fluorescence resonance energy transfer assay.

Data set [8] is described as follows: Octanol-buffer partition co-efficient, log D of the compound at pH 7.4 after 30 mins by shake flask method. The class given is physicochemical.
Data set [9] addresses 5-hydroxytryptamine receptor 1B (Homo sapiens, UniProt P28222). The data set can be described thus: Agonist activity at 5-HT1B receptor (unknown origin).
Data set [10] can be described thus: Binding affinity to GABA receptor (unknown origin) by radioligand displacement assay. The arrangement: species or system Homo sapiens. On the technique in general: Displacement assays read how much labelled ligand stays bound in the presence of the test substance.

Chain of 5-hydroxytryptamine receptor 1B (P28222 whole entry): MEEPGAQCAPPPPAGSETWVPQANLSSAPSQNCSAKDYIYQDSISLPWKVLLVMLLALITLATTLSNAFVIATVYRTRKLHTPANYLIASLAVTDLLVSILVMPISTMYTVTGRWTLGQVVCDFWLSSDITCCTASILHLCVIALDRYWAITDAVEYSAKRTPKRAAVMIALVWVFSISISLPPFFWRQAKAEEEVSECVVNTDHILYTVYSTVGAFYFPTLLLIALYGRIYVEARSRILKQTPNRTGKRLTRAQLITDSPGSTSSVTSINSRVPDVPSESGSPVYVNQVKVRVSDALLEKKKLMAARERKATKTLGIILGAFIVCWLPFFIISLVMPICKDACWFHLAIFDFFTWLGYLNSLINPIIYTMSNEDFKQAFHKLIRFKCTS

For orientation: GI50 means the concentration at which growth is held to half of that of the control. Lower therefore signals more potent growth inhibition. As a reminder, the Papp is a coefficient for how fast a substance crosses the barrier. What is called solubility is the dissolved amount per volume that the medium holds. A low value points to little dissolved substance. In general, IC50 refers to the concentration that gives 50% inhibition. A higher IC50 goes with lower potency. As to `O=C1CCc2cc3cc(c2N1)OC/C=C/CO[C@H]1C[C@@H](CO)N(C1)c1cc(n2ncc(Cl)c2n1)N3`, the GI50 was 3.98 µM in the data set on SU-DHL-2; 2 µM with OCI-Ly3; 2 µM with OCI-LY19; 2.51 µM in the data set with TMD8; 3.98 µM in the data set on OCI-Ly1; 6.31 µM in the data set on SUD4. The GI50 with U2932 is 2.51 µM; in the data set on AMO1, 3.16 µM; in the data set on KARPAS-422, 5.01 µM; in the data set with OCI-Ly10 it was 1.58 µM. In addition, the Papp in data set [1] came to 46 ×10⁻⁶ cm/s. Further, the solubility at 24 h in [2] is 31 µM (≈ 15.4 µg/mL). In [3], this compound gave an IC50 of 7.3 µM.

A word on the inhibition: it is the drop in the measured response relative to a control, in per cent. High values mean a response far below the control, low ones a response near the control. What is called Kd is a measure of binding affinity in units of concentration. Low values mean a tighter complex, high ones a looser complex. Broadly, the logD is the decadic logarithm of the distribution of all forms, ionised or not, between an organic phase and buffer at a given pH. The low end stands for a more hydrophilic compound, the high end for a more lipophilic compound. As to `N#Cc1cnn2c3cc(nc12)N1C[C@H](C[C@H]1CO)OC/C=C/COc1cc(cc2c1NC(=O)CC2)N3`, the GI50 in the data set with SU-DHL-2 is 3.16 µM; in the data set with OCI-Ly3, 3.98 µM; in the data set on OCI-LY19, 6.31 µM; in the data set with TMD8, 7.94 µM; with OCI-Ly1, 10 µM; in the data set with SUD4 it was 7.94 µM. Further, the GI50 in the data set with U2932 was 6.31 µM; with AMO1, 15.8 µM; in the data set on KARPAS-422, 7.94 µM; in the data set with OCI-Ly10 it was 5.01 µM. This compound returned an inhibition in the data set filed under Homo sapiens [4] of more than 60%. The compound also returned a Kd in data set [5] of 0.0065 µM. Besides, in the data set filed under Homo sapiens [6], the Ratio IC50 came to 220. Besides, the IC50 in [7] came out at 0.0029 µM. In addition, in data set [8], the logD at 0.5 h is 2.2.

On to `N#Cc1cnn2c(Nc3ccc4c(c3)CCC(=O)N4)cc(N3CCC[C@H]3CO)nc12`, for which the Kd in [5] amounted to 0.5 µM. Moreover, the IC50 in data set [7] is 0.37 µM. Further, the logD at 0.5 h in data set [8] was 2.3.

For orientation: EC50 means the concentration needed to bring the measured effect to its halfway point. Read a low EC50 as higher potency in that assay. What is called Ki is the equilibrium dissociation constant of an inhibitor or competing ligand from its target. Lower therefore signals higher affinity. `O=C1CCc2cc3cc(c2N1Cc1ccccc1)OC/C=C/CO[C@H]1C[C@@H](CO)N(C1)c1cc(n2ncc(Cl)c2n1)N3`: the GI50 in the data set with SU-DHL-2 was 10 µM; with OCI-Ly3, 12.6 µM; with OCI-LY19, 10 µM; in the data set on TMD8 it was 10 µM; in the data set on OCI-Ly1, 12.6 µM; with SUD4 it was 15.8 µM. The GI50 in the data set on U2932 is 7.94 µM; in the data set with AMO1 it was 25.1 µM; with KARPAS-422 it was 25.1 µM; with OCI-Ly10, 10 µM. The IC50 in data set [3] is more than 10 µM. The EC50 in data set [9] was determined as 0.57 µM. The compound further gave a Ki in data set [10] of 0.25 µM.
